Values after ≈ are worked out from the molar mass of the structure shown. Where a SMILES comes first, the peptide text is derived from it. [ ]: non-standard residue; d: D form. The star is where a group is joined. d(aIle) = CC[C@H](C)[C@@H](N)C(=O)O; dDab = NCC[C@@H](N)C(=O)O; Octanoyl = CCCCCCCC(=O)*; Dab = NCC[C@H](N)C(=O)O; AEEA = NCCOCCOCC(=O)O
Experiments:
[1] = test system: N. gonorrhoeae FA1090; conditions: microdilution in FB, ~5 × 10^4 CFU, 24 hr, 37°C, 5% CO2
Experimental: (§1) columns (ThermoFisher scientific). Activated mAb was added to 0.9 mg of Oct-TriA1 analogues (synthesised by ISCA Biochemicals, UK) and incubated at room temperature for 60 min. ADCs were dialysed using slide-A-Lyzer cassette (20K MWCO, ThermoFisher scientific) into PBS overnight at 4 °C […]
(§2) MALDI-TOF MS analysis for determination of intact mass mAbs or ADCs with a concentration of 1 mg/mL were acidified with 1% trifluoroacetic acid and mixed with Super DHB matrix, 1 μl was spotted onto an MTP Anchorchip 600/384. For every mAb, three sample spots were prepared from the same solution using three protocols advised by the manufacturer. MALDI-TOF measurements were performed on a Microflex LRF mass spectrometer, equipped with a 60Hz nitrogen laser at 337nm. Number of peptides conjugated was calculated using the MALDI-TOF molecular weights (MW) [MW = M+] of each ADC, the unconjugated antibody (mAb), and the molecular weights of Oct-TriA1 analogues using the following equation.
(§3) Number of peptides = MW ADC − MW mAb […]
(§4) Determination of Oct-TriA1 Minimum Inhibitory Concentration (MIC)
(§5) N. gonorrhoeae was resuspended in PBS to an ODA600 1.0, and ̴5 × 10^4 CFU added to wells of a microdilution plate containing dilutions of antimicrobials in FB. Plates were incubated for 24 hr at […]
(§6) 37°C, in 5% CO2 then 10 μl aliquots plated onto GCB agar. The MIC was defined as the lowest concentration of an antimicrobial that prevented bacterial growth. […]
(§7) Peptide concentration in ADC preparations
(§8) Peptide concentrations for ADCs were calculated from the antibody concentration, the drug-to-antibody ratio (DAR), and the peptide molecular weight using the following formula:
(§9) Conc. peptide (µg/mL) = Conc. ADC (µg/mL) × DAR x MWpeptide (Da) […]
(§10) Where Conc. ADC is the ADC/ mAb concentration, MWADC is the mAb molecular weight (150 kDa), MWpeptide is the peptide molecular weight and DAR is the average number of peptides per conjugate.
(§11) This formula was used to convert ADC concentrations to peptide concentrations for all assays. […]

[2] = test system: N. gonorrhoeae FA1090ΔmtrE; conditions: microdilution in FB, ~5 × 10^4 CFU, 24 hr, 37°C, 5% CO2
Experimental: as §1, §2, §3, §4, §5, §6, §7, §8, §9, §10, §11

[3] = test system: N. gonorrhoeae MS11; conditions: microdilution in FB, ~5 × 10^4 CFU, 24 hr, 37°C, 5% CO2
Experimental: as §1, §2, §3, §4, §5, §6, §7, §8, §9, §10, §11

[4] = test system: N. gonorrhoeae MS11ΔIgAP; conditions: microdilution in FB, ~5 × 10^4 CFU, 24 hr, 37°C, 5% CO2
Experimental: as §1, §2, §3, §4, §5, §6, §7, §8, §9, §10, §11

[5] = test system: N. gonorrhoeae MS11ΔmtrE; conditions: microdilution in FB, ~5 × 10^4 CFU, 24 hr, 37°C, 5% CO2
Experimental: as §1, §2, §3, §4, §5, §6, §7, §8, §9, §10, §11

[6] = test system: N. gonorrhoeae WHO F; conditions: microdilution in FB, ~5 × 10^4 CFU, 24 hr, 37°C, 5% CO2, lowest concentration preventing growth
Experimental: as §1, §2, §3, §4, §5, §6, §7, §8, §9, §10, §11

[7] = test system: N. gonorrhoeae WHO G; conditions: microdilution in FB, ~5 × 10^4 CFU, 24 hr, 37°C, 5% CO2
Experimental: as §1, §2, §3, §4, §5, §6, §7, §8, §9, §10, §11

[8] = test system: N. gonorrhoeae WHO K; conditions: microdilution in FB, ~5 × 10^4 CFU, 24 hr, 37°C, 5% CO2
Experimental: as §1, §2, §3, §4, §5, §6, §7, §8, §9, §10, §11

[9] = test system: N. gonorrhoeae WHO L; conditions: microdilution in FB, ~5 × 10^4 CFU, 24 hr, 37°C, 5% CO2
Experimental: as §1, §2, §3, §4, §5, §6, §7, §8, §9, §10, §11

[10] = test system: N. gonorrhoeae WHO M; conditions: microdilution in FB, ~5 × 10^4 CFU, 24 hr, 37°C, 5% CO2
Experimental: as §1, §2, §3, §4, §5, §6, §7, §8, §9, §10, §11

[11] = test system: N. gonorrhoeae WHO O; conditions: microdilution in FB, ~5 × 10^4 CFU, 24 hr, 37°C, 5% CO2
Experimental: as §1, §2, §3, §4, §5, §6, §7, §8, §9, §10, §11

[12] = test system: N. gonorrhoeae WHO P; conditions: microdilution in FB, ~5 × 10^4 CFU, 24 hr, 37°C, 5% CO2
Experimental: as §1, §2, §3, §4, §5, §6, §7, §8, §9, §10, §11

[13] = test system: human erythrocytes; assay: Hemolysis of human erythrocytes; assay type: cell-based
Experimental: For hemolysis, whole human blood (1 ml; K2EDTA; Cambridge Bioscience) was washed in PBS then 0.5% added to an equal volume of peptides or ADCs in 96-well V-bottomed polypropylene plates and incubated at 37°C for 1 hr. Cells were pelleted at 1,000 × g for 10 min and the absorbance at OD415 measured. Positive (melittin, 2.5 µM, Merck Life Science) and negative (PBS) controls were normalised as 100 and 0% hemolysis, respectively. […]

[14] = test system: N. gonorrhoeae FA1090; assay: microbe, parasite or virus in culture; conditions: FA1090, FB
Experimental: 37°C, in 5% CO2 then 10 μl aliquots plated onto GCB agar. The MIC was defined as the lowest concentration of an antimicrobial that prevented bacterial growth.
Determination of N. gonorrhoeae resistance to Oct-TriA1
Single colonies of N. gonorrhoeae FA1090 were inoculated into 2 mL of FB media supplemented with 1% Vitox (Oxoid) and grown overnight. After 24 hours, 240 µl of a 1/ 5,000 dilution of FA1090 in 2x FB was added to a 48-well plate containing 2-fold dilutions of either Oct-TriA1-c (final concentration, 12.5 µg/ml to 0.2 µg/ml) or ciprofloxacin (final concentration, 16.4 to 0.001 µg/ml) in a total volume of 480
µl. Plates were incubated at 37 °C, 5% CO2 with shaking (180 rpm). After 24 hours, ODA600 of each well […]
to fresh media containing all concentrations of antimicrobials for a total of 35 days. […]

Structure (SMILES): CCCCCCCC(=O)N[C@@H](C(=O)N[C@H](CCN)C(=O)NCC(=O)N[C@H](CO)C(=O)N[C@H](Cc1c[nH]c2ccccc12)C(=O)N[C@@H](CO)C(=O)N[C@@H](CCN)C(=O)N[C@H](CCN)C(=O)N[C@@H](Cc1ccccc1)C(=O)N[C@@H](CCC(=O)O)C(=O)N[C@H](C(=O)N[C@@H](C(=O)N[C@@H](C)C(=O)NCCOCCOCC(=O)N[C@@H](CC(C)C)C(=O)N1CCC[C@H]1C(=O)N[C@@H](CCCNC(=N)N)C(=O)N1CCC[C@H]1C(=O)N1CCC[C@H]1C(=O)O)[C@@H](C)CC)C(C)C)C(C)C [Oct-TriA1-c] (Octanoyl-[dV][dDab]G[dS][dW]S[Dab][dDab]FEV[d(aIle)]A[AEEA]LPRPP-OH)
- MIC [1]: 0.78 µg/mL (≈ 0.35 µM)
- MIC [2]: 0.78 µg/mL (≈ 0.35 µM)
- MIC [3]: 3.13 µg/mL (≈ 1.41 µM)
- MIC [4]: 6.25 µg/mL (≈ 2.81 µM)
- MIC [5]: 1.56 µg/mL (≈ 0.701 µM)
- MIC [6]: 1.56 µg/mL (≈ 0.701 µM)
- MIC [7]: 3.13 µg/mL (≈ 1.41 µM)
- MIC [8]: 3.13 µg/mL (≈ 1.41 µM)
- MIC [9]: 1.56 µg/mL (≈ 0.701 µM)
- MIC [10]: 1.56 µg/mL (≈ 0.701 µM)
- MIC [11]: 3.13 µg/mL (≈ 1.41 µM)
- MIC [12]: 3.13 µg/mL (≈ 1.41 µM)
- fold reduced hemolytic activity ([13]; compared with unmodified Oct-TriA1): > 25 fold
- Hemolysis (HC50) ([13]; concentration of peptide or ADC that lyses 50% of erythrocytes, washed human blood 0.5%, 37°C, 1 hr, OD415, melittin 2.5 µM = 100%, PBS = 0%, n = 3): >1,000 μg mL^−1
- HC50 ([13]; human erythrocytes, 37°C, 1 hr, OD415): > 1 mg/mL
- MIC at start of resistance evolution ([14]; 24 h, MIC = less than 50% growth (OD600) vs no antimicrobial): 1.56 µg/mL
- MIC after 35 d of resistance evolution ([14]; serial passage 35 d, MIC = less than 50% growth (OD600)): 12.5 µg/mL

Source: publication PMC13439108, “An antibody–drug conjugate active against antibiotic-resistant Neisseria gonorrhoeae” (Proceedings of the National Academy of Sciences of the …, 2026)
